Test results reported in ChEMBL document CHEMBL3232872, “Cytotoxic constituents from Lobaria scrobiculata and a comparison of two bioassays for their evaluation” (J Nat Prod, 2014).
pIC50: −log10 of the molar value. Activity calls are given as the source filed them. The calls are words filed in the database; no cut-off is given here.

Experiments:
[1] = test system: HL-60; assay: Cytotoxicity against human HL60 cells after 48 hrs by WST-1 assay; format: functional, cell-based; conditions: HL-60, 48 h
[2] = test system: HL-60; assay: Cytotoxicity against human HL60 cells after 24 hrs by WST-1 assay; format: functional, cell-based; conditions: HL-60, 24 h
[3] = test system: HeLa; assay: Cytotoxicity against human HeLa cells after 24 hrs by WST-1 assay; format: functional, cell-based
[4] = test system: HeLa; assay: Cytotoxicity against human HeLa cells after 48 hrs by WST-1 assay; format: functional, cell-based
[5] = Chemical stability of the compound in methanol measured at 48 hrs by LC-MS analysis; format: physicochemical; conditions: read-out: Stability
[6] = test system: HL-60; assay: Cytotoxicity against human HL60 cells after 72 hrs; format: functional, cell-based; conditions: HL-60, 72 h
[7] = test system: Vero; assay: Cytotoxicity against African green monkey Vero cells after 24 hrs by Alamar Blue assay; format: cell-based; conditions: Chlorocebus sabaeus
[8] = test system: Vero; assay: Cytotoxicity against African green monkey Vero cells after 48 hrs by Alamar Blue assay; format: cell-based; conditions: Chlorocebus sabaeus
[9] = Chemical stability of the compound in methanol measured at 72 hrs by LC-MS analysis; format: physicochemical; conditions: read-out: Stability
[10] = Chemical stability of the compound in methanol measured at 24 hrs by LC-MS analysis; format: physicochemical; conditions: read-out: Stability
[11] = Chemical stability of the compound in methanol measured immediately post compound addition by LC-MS analysis; format: physicochemical; conditions: read-out: Stability
[12] = test system: HL-60; assay: Cytotoxicity against human HL60 cells assessed as decrease in cell viability at 50 ug/mL after 24 hrs by trypan blue assay; format: functional, cell-based
[13] = test system: HL-60; assay: Cytotoxicity against human HL60 cells assessed as metabolic activity at 50 ug/mL after 24 hrs by WST-1 assay; format: functional, cell-based
[14] = test system: HL-60; assay: Cytotoxicity against human HL60 cells assessed as metabolic activity at 10 ug/mL measured over 72 hrs by WST-1 assay; format: functional, cell-based
[15] = Drug degradation in methanol assessed as 2,3,4 trihydroxy-6-propylbenzoic acid methyl ester formation after 72 hrs by LC-MS analysis; format: physicochemical
[16] = Drug degradation in methanol assessed as divaricatinic acid methyl ester formation after 72 hrs by LC-MS analysis; format: physicochemical
[17] = test system: HL-60; assay: Cytotoxicity against human HL60 cells assessed as decrease in cell viability at 10 ug/mL measured over 72 hrs by trypan blue assay; format: functional, cell-based

| SMILES | pIC50 [1] | pIC50 [2] | pIC50 [3] | pIC50 [4] | remaining at 48 h [5] | pIC50 [6] | pIC50 [7] | pIC50 [8] | remaining at 72 h [9] | remaining at 24 h [10] | remaining at 0 h [11] | Activity [12] | Activity [13] | Activity [14] | Stability [15] | Stability [16] | Activity [17] |
| --- | --- | --- | --- | --- | --- | --- | --- | --- | --- | --- | --- | --- | --- | --- | --- | --- | --- |
| CC(=O)C1=C(O)C=C2Oc3c(C(C)=O)c(O)c(C)c(O)c3[C@@]2(C)C1=O [(+)-USNIC ACID] | 5.77 | 5.27 | < 5.00 | < 5.00 | 99.9% | 4.31 | < 3.82 | < 3.82 | 99.9% | 99.9% | 99.9% | – | – | – | – | – | – |
| COc1cc(C)c2c(c1C=O)Oc1c(c(C)c(O)c3c1C(O)OC3=O)OC2=O (centres undefined) [STICTIC ACID] | < 5.00 | < 5.00 | < 5.00 | < 5.00 | 91.8% | – | < 3.82 | < 3.82 | 91.8% | 90.1% | 89.7% | Active | inactive | – | – | – | – |
| CCCc1cc(OC)cc(O)c1C(=O)Oc1c(O)cc(CCC)c(C(=O)OC)c1O | 5.12 | < 5.00 | < 5.00 | < 5.00 | 35.3% | – | < 3.82 | < 3.82 | 22.1% | 63.8% | 99.8% | – | – | Active | Unstable | Unstable | Active |
| CCCc1cc(O)cc(O)c1C(=O)OC | < 5.00 | < 5.00 | < 5.00 | < 5.00 | 99.9% | – | < 3.82 | < 3.82 | 99.9% | 99.9% | 99.8% | – | – | – | – | – | – |
| CCCc1cc(O)c(O)c(O)c1C(=O)OC | < 5.00 | < 5.00 | < 5.00 | < 5.00 | 94.6% | – | < 3.82 | < 3.82 | 94.8% | 95% | 97.8% | – | – | – | – | – | – |
| COc1cc(C)c2c(c1C=O)Oc1c(C=O)c(C(=O)O)c(O)c(C)c1OC2=O | < 5.00 | < 5.00 | < 5.00 | < 5.00 | 89.6% | – | < 3.82 | < 3.82 | 89.5% | 88.5% | 94.1% | Active | inactive | – | – | – | – |
